In article PMC9115913 (Biological chemistry, 2022):
≈ marks a conversion by molar mass, not a printed value. Where “and” joins values, the source holds several entries; their conditions need not be identical. Equal values may be shown once. Read-outs that look alike come from different tables or passages of the source.

Experiments:
PBP1a = PBP1a (Streptococcus pneumoniae, UniProt Q8DR59); test: cell-based; format: binding; conditions: IC50 PBPla
PBP1b = PBP1b (Streptococcus pneumoniae, UniProt Q7CRA4); format: binding; conditions: read-out: IC50 PBP1b
PBP2x = PBP2x (Streptococcus pneumoniae, UniProt P59676); test: cell-based; format: binding
PBP2x, sequence (P59676 whole entry): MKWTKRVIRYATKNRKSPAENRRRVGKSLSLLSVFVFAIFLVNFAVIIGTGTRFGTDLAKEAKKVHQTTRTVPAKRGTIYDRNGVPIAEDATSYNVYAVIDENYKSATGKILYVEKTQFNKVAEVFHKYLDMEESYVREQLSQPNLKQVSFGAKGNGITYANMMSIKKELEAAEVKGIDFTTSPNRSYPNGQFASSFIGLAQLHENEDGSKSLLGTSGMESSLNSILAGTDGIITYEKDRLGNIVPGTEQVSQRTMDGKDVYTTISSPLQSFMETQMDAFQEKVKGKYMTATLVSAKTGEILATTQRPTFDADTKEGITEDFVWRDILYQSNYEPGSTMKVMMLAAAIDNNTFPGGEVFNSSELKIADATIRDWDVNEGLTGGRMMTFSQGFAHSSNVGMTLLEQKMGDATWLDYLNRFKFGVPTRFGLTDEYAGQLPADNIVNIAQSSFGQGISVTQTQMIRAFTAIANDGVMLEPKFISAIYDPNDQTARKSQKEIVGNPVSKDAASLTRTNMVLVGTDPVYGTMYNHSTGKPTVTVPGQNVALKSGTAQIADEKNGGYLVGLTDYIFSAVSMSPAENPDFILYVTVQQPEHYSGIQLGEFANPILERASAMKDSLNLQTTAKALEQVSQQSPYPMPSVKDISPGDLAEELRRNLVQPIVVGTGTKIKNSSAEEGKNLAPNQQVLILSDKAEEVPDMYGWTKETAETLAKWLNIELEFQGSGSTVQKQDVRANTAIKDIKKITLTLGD

PBP2a = PBP2a (Streptococcus pneumoniae, UniProt Q8DNB6); test: cell-based; format: binding
PBP2a, sequence (Q8DNB6 whole entry): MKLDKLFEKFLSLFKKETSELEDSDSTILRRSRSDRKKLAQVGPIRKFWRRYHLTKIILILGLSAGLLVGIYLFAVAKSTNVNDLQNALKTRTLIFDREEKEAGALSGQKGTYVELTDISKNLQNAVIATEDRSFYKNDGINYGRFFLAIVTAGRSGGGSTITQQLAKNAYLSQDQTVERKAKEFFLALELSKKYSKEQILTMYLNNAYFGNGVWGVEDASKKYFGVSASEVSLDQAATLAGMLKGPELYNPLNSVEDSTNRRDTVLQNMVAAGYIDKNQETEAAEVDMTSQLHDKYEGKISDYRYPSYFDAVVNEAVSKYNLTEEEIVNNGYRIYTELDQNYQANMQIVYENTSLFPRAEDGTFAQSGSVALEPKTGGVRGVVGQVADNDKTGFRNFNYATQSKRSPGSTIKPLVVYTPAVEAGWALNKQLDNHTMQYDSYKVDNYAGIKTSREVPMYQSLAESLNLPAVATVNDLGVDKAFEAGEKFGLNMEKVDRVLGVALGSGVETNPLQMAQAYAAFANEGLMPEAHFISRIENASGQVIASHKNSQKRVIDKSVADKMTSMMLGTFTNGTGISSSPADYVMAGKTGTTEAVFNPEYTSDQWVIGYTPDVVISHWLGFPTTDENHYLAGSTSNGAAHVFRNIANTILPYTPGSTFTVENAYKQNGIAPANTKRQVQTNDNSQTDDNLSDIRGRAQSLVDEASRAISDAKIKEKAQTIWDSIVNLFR

PBP2b = PBP2b (Streptococcus pneumoniae, UniProt P0A3M6); test: cell-based; format: binding
PBP2b, sequence (P0A3M6 whole entry): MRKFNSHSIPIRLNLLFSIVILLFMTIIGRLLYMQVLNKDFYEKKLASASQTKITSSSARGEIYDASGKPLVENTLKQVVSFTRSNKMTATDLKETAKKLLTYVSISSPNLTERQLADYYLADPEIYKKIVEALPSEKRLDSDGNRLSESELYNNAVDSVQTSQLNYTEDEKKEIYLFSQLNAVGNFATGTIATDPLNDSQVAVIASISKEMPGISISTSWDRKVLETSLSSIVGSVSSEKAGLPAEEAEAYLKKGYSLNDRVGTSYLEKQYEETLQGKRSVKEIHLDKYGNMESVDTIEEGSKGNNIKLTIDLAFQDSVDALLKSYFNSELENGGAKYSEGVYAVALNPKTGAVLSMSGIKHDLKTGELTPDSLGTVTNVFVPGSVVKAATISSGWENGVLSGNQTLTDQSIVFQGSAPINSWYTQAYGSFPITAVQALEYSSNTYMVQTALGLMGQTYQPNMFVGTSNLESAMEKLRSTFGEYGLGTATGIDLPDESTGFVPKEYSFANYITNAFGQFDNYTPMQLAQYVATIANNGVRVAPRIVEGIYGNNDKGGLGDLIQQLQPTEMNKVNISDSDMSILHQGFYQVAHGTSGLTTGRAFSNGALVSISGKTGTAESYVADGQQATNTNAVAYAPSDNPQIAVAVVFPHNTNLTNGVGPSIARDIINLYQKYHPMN

PBP3 = biological target: T1, PBP3 (Streptococcus pneumoniae, UniProt Q8DQ99); conditions: read-out: IC50 PBP3
T1 sequence (Q8DQ99 23-413): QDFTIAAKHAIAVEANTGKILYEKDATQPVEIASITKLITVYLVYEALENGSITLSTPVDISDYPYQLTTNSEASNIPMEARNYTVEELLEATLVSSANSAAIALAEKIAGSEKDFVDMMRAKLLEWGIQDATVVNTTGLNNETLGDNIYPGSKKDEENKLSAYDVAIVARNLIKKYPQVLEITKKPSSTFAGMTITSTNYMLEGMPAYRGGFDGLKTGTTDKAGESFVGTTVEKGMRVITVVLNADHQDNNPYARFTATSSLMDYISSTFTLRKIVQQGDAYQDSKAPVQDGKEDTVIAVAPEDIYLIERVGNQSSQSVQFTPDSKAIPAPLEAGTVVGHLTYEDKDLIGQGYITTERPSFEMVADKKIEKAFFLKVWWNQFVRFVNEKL

S. pneumoniae IU1945 = test: Antimicrobial susceptibility assay; format: cell-based; conditions: Streptococcus pneumoniae
[1] = test system: penicillin-binding proteins (PBPs); conditions: S. pneumoniae, previous assessment; ref Kocaoglu et al. 2015; cited from earlier work
[2] = test system: penicillin-binding proteins (PBPs); conditions: line of the Δpbp1b mutant strain; 4-fold rule
[3] = strain IU1945, average ± SEM of two experiments
[4] = Δpbp1b mutant strain, average ± SEM
[5] = Δpbp1a mutant strain, average ± SEM

PBP1a, sequence (Q8DR59 whole entry): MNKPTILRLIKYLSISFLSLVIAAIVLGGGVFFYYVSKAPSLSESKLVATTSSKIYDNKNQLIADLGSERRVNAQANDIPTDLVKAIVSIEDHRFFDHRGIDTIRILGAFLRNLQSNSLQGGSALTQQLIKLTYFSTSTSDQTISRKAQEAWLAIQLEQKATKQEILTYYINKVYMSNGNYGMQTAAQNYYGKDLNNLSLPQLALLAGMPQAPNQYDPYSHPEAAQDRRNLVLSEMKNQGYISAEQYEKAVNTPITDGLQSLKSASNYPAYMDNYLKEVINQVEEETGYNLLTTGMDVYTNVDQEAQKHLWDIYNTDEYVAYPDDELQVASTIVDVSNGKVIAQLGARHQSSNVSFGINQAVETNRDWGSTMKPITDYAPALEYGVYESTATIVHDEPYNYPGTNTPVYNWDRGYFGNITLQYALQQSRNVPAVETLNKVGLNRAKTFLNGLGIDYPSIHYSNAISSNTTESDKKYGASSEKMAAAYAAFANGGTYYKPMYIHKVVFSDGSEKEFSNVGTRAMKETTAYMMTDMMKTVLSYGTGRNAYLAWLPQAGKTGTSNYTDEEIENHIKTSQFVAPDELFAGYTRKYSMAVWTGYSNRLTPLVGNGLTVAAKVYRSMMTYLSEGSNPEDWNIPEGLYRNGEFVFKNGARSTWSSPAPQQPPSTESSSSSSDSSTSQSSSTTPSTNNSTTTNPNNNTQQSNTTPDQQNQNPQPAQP

SMILES | IC50 (PBP1a; [3]) [µM] | IC50 (PBP1b; [3]) [µM] | IC50 (PBP2x; [3]) | IC50 (PBP2a; [3]) [µM] | IC50 (PBP2b; [3]) [µM] | IC50 (PBP3; [3]) | MIC (S. pneumoniae IU1945) [µM] | IC50 (PBP1a; [4]) [µM] | IC50 (PBP1b; [5]) [µM] | IC50 (PBP2x; [4]) [µM] | IC50 (PBP2a; [5]) [µM] | IC50 (PBP2a; [4]) [µM] | IC50 (PBP2b; [5]) [µM] | IC50 (PBP2b; [4]) [µM] | IC50 (PBP3; [5]) [µM] | IC50 (PBP3; [4]) [µM] | PBP selectivity (previous report) [1] | IC50 (PBP2x; [5]) [µM] | PBP selectivity [2]
CC1(C)S[C@@H]2[C@H](NC(=O)[C@H](NC(=O)N3CCNC3=O)c3ccccc3)C(=O)N2[C@H]1C(=O)O [Azlocillin, azlocillin] | 1.53 ± 0.532 | 0.963 ± 0.477 | 0.081 ± 0.018 µM | 1.4 ± 0.693 | 0.294 ± 0.131 | 0.065 ± 0.013 µM | – | – | – | – | – | – | – | – | – | – | – | – | –
C[C@@H](O)[C@H]1C(=O)N2C(C(=O)[O-])=C(SC3Cn4cnc[n+]4C3)[C@H](C)[C@H]12 (stereo partly shown) [Biapenem, biapenem] | 0.06 ± 0.021 | 6.82 ± 4.15 | – | 0.146 | 0.111 ± 0.106 | 0.006 ± 0.001 µM | 0.01 (≈ 3.5 ng/mL) | – | – | – | – | – | – | – | – | – | – | – | –
CC1(C)S[C@@H]2[C@H](NC(=O)C(C(=O)O)c3ccccc3)C(=O)N2[C@H]1C(=O)O (stereo partly shown) [Carbenicillin, carbenicillin] | 1.11 ± 0.367 | 0.859 ± 0.285 | 0.962 ± 0.506 µM | 5.64 ± 4.47 | 2.12 ± 1.15 | 0.018 ± 0.011 µM | 0.1 (≈ 37.8 ng/mL) | – | – | – | – | – | – | – | – | – | – | – | –
N[C@@H](C(=O)N[C@@H]1C(=O)N2C(C(=O)O)=C(Cl)CS[C@H]12)c1ccccc1 [Cefaclor, cefaclor] | 3.6 ± 1.33 | 8.59 ± 3.63 | 3.67 ± 2.52 µM | – | 55.4 ± 26.3 | 0.034 ± 0.009 µM | 10 (≈ 3680 ng/mL) | – | – | – | – | – | – | – | – | – | – | – | –
CO/N=C(\C(=O)N[C@@H]1C(=O)N2C(C(=O)[O-])=C(C[N+]3(C)CCCC3)CS[C@H]12)c1csc(N)n1 [Cefepime, cefepime] | – | – | – | – | – | – | 0.01 (≈ 4.81 ng/mL) | – | – | – | – | – | – | – | – | – | – | – | –
C=CC1=C(C(=O)O)N2C(=O)[C@@H](NC(=O)/C(=N\OCC(=O)O)c3csc(N)n3)[C@H]2SC1 [Cefixime, cefixime] | 32.3 ± 34.4 | 8.96 ± 4.6 | 0.336 ± 0.224 µM | 4.85 ± 2.06 | > 1000 | 0.026 ± 0.007 µM | 0.1 (≈ 45.3 ng/mL) | – | – | – | – | – | – | – | – | – | – | – | –
CO[C@@]1(NC(=O)C2SC(=C(C(N)=O)C(=O)O)S2)C(=O)N2C(C(=O)O)=C(CSc3nnnn3C)CS[C@@H]21 (stereo partly shown) [Cefotetan, cefotetan] | 14.6 ± 6.7 | 0.538 ± 0.201 | 14.4 ± 5.77 µM | 54.3 ± 21.5 | – | 0.069 ± 0.015 µM | 1 (≈ 576 ng/mL) | – | – | – | – | – | – | – | – | – | – | – | –
CO/N=C(\C(=O)N[C@@H]1C(=O)N2C(C(=O)[O-])=C(C[n+]3cccc4c3CCC4)CS[C@H]12)c1csc(N)n1 [Cefpirome, cefpirome] | 0.051 ± 0.011 | 0.024 ± 0.008 | 0.002 ± 0.001 µM | 0.016 ± 0.004 | 5.53 ± 2.99 | – | 0.01 (≈ 5.15 ng/mL) | – | – | – | – | – | – | – | – | – | – | – | –
COCC1=C(C(=O)O)N2C(=O)[C@@H](NC(=O)/C(=N\OC)c3csc(N)n3)[C@H]2SC1 [Cefpodoxime, cefpodoxime] | 1.92 ± 0.581 | 0.907 ± 0.406 | 0.041 ± 0.015 µM | 0.341 ± 0.125 | 0.522 ± 0.231 | 0.032 ± 0.005 µM | 0.01 (≈ 4.27 ng/mL) | 2.78 ± 0.886 | 0.301 ± 0.071 | 0.035 ± 0.018 | 0.621 ± 0.161 | 0.179 ± 0.081 | > 1000 | > 1000 | 0.032 ± 0.004 | 0.018 ± 0.004 | – | – | –
Cc1onc(-c2ccccc2Cl)c1C(=O)N[C@@H]1C(=O)N2[C@@H]1SC(C)(C)[C@@H]2C(=O)O [Cloxacillin, cloxacillin] | 0.561 ± 0.219 | 0.977 ± 0.372 | 0.119 ± 0.062 µM | 4.47 ± 2.24 | 2.36 ± 1.77 | 0.102 ± 0.092 µM | – | – | – | – | – | – | – | – | – | – | – | – | –
Cc1onc(-c2c(Cl)cccc2Cl)c1C(=O)N[C@@H]1C(=O)N2[C@@H]1SC(C)(C)[C@@H]2C(=O)O [Dicloxacillin, dicloxacillin] | 0.385 ± 0.261 | 1.14 ± 1.37 | 0.042 ± 0.055 µM | 4.84 ± 4.74 | 8.7 | 0.065 ± 0.051 µM | 0.01 (≈ 4.7 ng/mL) | – | – | – | – | – | – | – | – | – | – | – | –
C[C@@H](O)[C@H]1C(=O)N2C(C(=O)O)=C(S[C@@H]3CN[C@H](CNS(N)(=O)=O)C3)[C@H](C)[C@H]12 [Doripenem, doripenem] | – | – | – | – | – | – | – | – | – | – | – | – | – | – | – | – | co-selectivity towards PBP3 along with PBP1a, but these molecules were additionally co-selective for PBP2x | – | –
C[C@@H](O)[C@H]1C(=O)N2C(C(=O)O)=C(S[C@@H]3CN[C@H](C(=O)Nc4cccc(C(=O)O)c4)C3)[C@H](C)[C@H]12 [Ertapenem, ertapenem] | 0.118 ± 0.064 | 0.137 ± 0.375 | 0.752 ± 0.817 µM | 26.8 ± 4.08 | 13.8 ± 3.49 | 0.061 ± 0.043 µM | 0.01 (≈ 4.76 ng/mL) | 0.038 ± 0.012 | 0.326 ± 0.082 | 0.729 ± 0.122 | – | 6.69 ± 0.401 | 3.86 ± 7.4 | > 1000 | 0.012 ± 0.006 | 0.031 ± 0.011 | – | 0.341 ± 0.251 | co-selectivity towards PBP3 and PBP1a and 3, la
Cc1onc(-c2c(F)cccc2Cl)c1C(=O)N[C@@H]1C(=O)N2[C@@H]1SC(C)(C)[C@@H]2C(=O)O [Flucloxacillin, flucloxacillin] | 12.4 ± 4.2 | 17.7 ± 4.16 | 0.83 µM and 0.832 µM | 35.3 ± 26 | 18.5 ± 11.1 | 0.91 µM and 0.911 µM | 1 (≈ 454 ng/mL) | 11 ± 2.47 | 50.5 ± 2.03 | 2.01 ± 0.878 | 16 ± 2.01 | 51.5 ± 5.16 | 16.8 ± 9.3 | 33.5 ± 16 | 0.783 ± 0.581 | 1.95 ± 0.884 | – | 0.889 ± 0.389 | –
C[C@@H](O)[C@H]1C(=O)N2C(C(=O)O)=C(SCCN=CN)C[C@H]12 [Imipenem, imipenem] | 0.027 ± 0.005 | 0.052 ± 0.022 | 0.048 ± 0.013 µM | 0.062 ± 0.021 | 0.052 ± 0.011 | 0.007 ± 0.001 µM | 0.1 (≈ 29.9 ng/mL) | – | – | – | – | – | – | – | – | – | – | – | –
C[C@@H](O)[C@H]1C(=O)N2C(C(=O)O)=C(S[C@@H]3CN[C@H](C(=O)N(C)C)C3)[C@H](C)[C@H]12 [Meropenem, meropenem] | – | – | – | – | – | – | – | – | – | – | – | – | – | – | – | – | co-selectivity towards PBP3 along with PBP1a, but these molecules were additionally co-selective for PBP2x | – | –
CCOc1ccc2ccccc2c1C(=O)N[C@@H]1C(=O)N2[C@@H]1SC(C)(C)[C@@H]2C(=O)O [Nafcillin, nafcillin] | 94.5 ± 88.6 | 32.4 ± 3.78 | 0.014 ± 0.006 µM | 4.54 ± 1.75 | 1.27 ± 0.306 | 0.125 ± 0.061 µM | 0.01 (≈ 4.14 ng/mL) | – | – | – | – | – | – | – | – | – | – | – | –
CC1(C)S[C@@H]2[C@H](NC(=O)[C@H](C(=O)O)c3ccsc3)C(=O)N2[C@H]1C(=O)O [Ticarcillin, ticarcillin] | 0.827 ± 0.365 | 1.01 ± 0.331 | 0.251 ± 0.109 µM | 7.74 ± 2.6 | 3.34 ± 1.48 | 0.146 ± 0.087 µM | – | – | – | – | – | – | – | – | – | – | – | – | –
